Measured values from PubChem BioAssay (NCI).
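Test compounds were applied to cells in 96-well plates for 48 hours at 5 doses. Definition used: TGI = concentration required for complete inhibition of growth.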

How the values were obtained:
Experiment in all cases: DTP human tumour cell line panel, 48 h
786-0 renal = test system: 786-0 renal
A498 renal = test system: A498 renal
A549 NSCLC = test system: A549 NSCLC
ACHN renal = test system: ACHN renal
CAKI-1 renal = test system: CAKI-1 renal
CCRF-CEM leukemia = test system: CCRF-CEM leukemia
COLO 205 colon = test system: COLO 205 colon
DLD-1 colon = test system: DLD-1 colon
DMS 114 small cell lung = test system: DMS 114 small cell lung
DMS 273 small cell lung = test system: DMS 273 small cell lung
EKVX NSCLC = test system: EKVX NSCLC
HCC-2998 colon = test system: HCC-2998 colon
HCT-15 colon = test system: HCT-15 colon
HL-60(TB) leukemia = test system: HL-60(TB) leukemia
HOP-18 NSCLC = test system: HOP-18 NSCLC
HOP-62 NSCLC = test system: HOP-62 NSCLC
HOP-92 NSCLC = test system: HOP-92 NSCLC
HT29 colon = test system: HT29 colon
IGROV1 ovarian = test system: IGROV1 ovarian
K-562 leukemia = test system: K-562 leukemia
KM12 colon = test system: KM12 colon
KM20L2 colon = test system: KM20L2 colon
LOX IMVI melanoma = test system: LOX IMVI melanoma
LXFL 529 NSCLC = test system: LXFL 529 NSCLC
M14 melanoma = test system: M14 melanoma
M19-MEL melanoma = test system: M19-MEL melanoma
MALME-3M melanoma = test system: MALME-3M melanoma
MOLT-4 leukemia = test system: MOLT-4 leukemia
NCI-H226 lung = test system: NCI-H226 lung
NCI-H23 lung = test system: NCI-H23 lung
NCI-H460 lung = test system: NCI-H460 lung
NCI-H522 lung = test system: NCI-H522 lung
OVCAR-3 ovarian = test system: OVCAR-3 ovarian
OVCAR-4 ovarian = test system: OVCAR-4 ovarian
OVCAR-5 ovarian = test system: OVCAR-5 ovarian
RPMI-8226 leukemia = test system: RPMI-8226 leukemia
SF-268 CNS = test system: SF-268 CNS
SF-295 CNS = test system: SF-295 CNS
SF-539 CNS = test system: SF-539 CNS
SK-MEL-2 melanoma = test system: SK-MEL-2 melanoma
SK-MEL-28 melanoma = test system: SK-MEL-28 melanoma
SK-MEL-5 melanoma = test system: SK-MEL-5 melanoma
SK-OV-3 ovarian = test system: SK-OV-3 ovarian
SNB-19 CNS = test system: SNB-19 CNS
SNB-78 CNS = test system: SNB-78 CNS
SW-620 colon = test system: SW-620 colon
TK-10 renal = test system: TK-10 renal
U251 CNS = test system: U251 CNS
UACC-257 melanoma = test system: UACC-257 melanoma
UACC-62 melanoma = test system: UACC-62 melanoma
UO-31 renal = test system: UO-31 renal
XF 498 CNS = test system: XF 498 CNS
HCT-116 colon = test system: HCT-116 colon
OVCAR-8 ovarian = test system: OVCAR-8 ovarian
RXF 393 renal = test system: RXF 393 renal
SNB-75 CNS = test system: SNB-75 CNS
SN12C renal = test system: SN12C renal

Measured: TGI

CC1=Nn2c(nnc2-c2ccc(Cl)cc2)NC(C)(C)C1
> 100 µM: 786-0 renal | A498 renal | A549 NSCLC | ACHN renal | CAKI-1 renal | CCRF-CEM leukemia | COLO 205 colon | DLD-1 colon | DMS 114 small cell lung | DMS 273 small cell lung | EKVX NSCLC | HCC-2998 colon | HCT-15 colon | HL-60(TB) leukemia | HOP-18 NSCLC | HOP-62 NSCLC | HOP-92 NSCLC | HT29 colon | IGROV1 ovarian | K-562 leukemia | KM12 colon | KM20L2 colon | LOX IMVI melanoma | LXFL 529 NSCLC | M14 melanoma | M19-MEL melanoma | MALME-3M melanoma | MOLT-4 leukemia | NCI-H226 lung | NCI-H23 lung | NCI-H460 lung | NCI-H522 lung | OVCAR-3 ovarian | OVCAR-4 ovarian | OVCAR-5 ovarian | RPMI-8226 leukemia | SF-268 CNS | SF-295 CNS | SF-539 CNS | SK-MEL-2 melanoma | SK-MEL-28 melanoma | SK-MEL-5 melanoma | SK-OV-3 ovarian | SNB-19 CNS | SNB-78 CNS | SW-620 colon | TK-10 renal | U251 CNS | UACC-257 melanoma | UACC-62 melanoma | UO-31 renal | XF 498 CNS

CCOC(=O)C1(C(=O)OCC)OC(=O)NC2=C1CCCC2
> 100 µM: 786-0 renal | A498 renal | A549 NSCLC | ACHN renal | CCRF-CEM leukemia | COLO 205 colon | DLD-1 colon | DMS 114 small cell lung | DMS 273 small cell lung | EKVX NSCLC | HCC-2998 colon | HCT-116 colon | HL-60(TB) leukemia | HOP-18 NSCLC | HOP-62 NSCLC | HOP-92 NSCLC | HT29 colon | IGROV1 ovarian | K-562 leukemia | KM12 colon | KM20L2 colon | LOX IMVI melanoma | LXFL 529 NSCLC | M19-MEL melanoma | MALME-3M melanoma | MOLT-4 leukemia | NCI-H23 lung | NCI-H460 lung | NCI-H522 lung | OVCAR-3 ovarian | OVCAR-5 ovarian | OVCAR-8 ovarian | RPMI-8226 leukemia | RXF 393 renal | SF-268 CNS | SF-295 CNS | SF-539 CNS | SK-MEL-2 melanoma | SK-MEL-28 melanoma | SK-MEL-5 melanoma | SK-OV-3 ovarian | SNB-19 CNS | SNB-75 CNS | SNB-78 CNS | SW-620 colon | TK-10 renal | U251 CNS | UACC-257 melanoma | UO-31 renal | XF 498 CNS

Cn1nc(N)nc1N=S(C)(C)=N
> 100 µM: 786-0 renal | A498 renal | A549 NSCLC | ACHN renal | CAKI-1 renal | CCRF-CEM leukemia | COLO 205 colon | DMS 114 small cell lung | DMS 273 small cell lung | EKVX NSCLC | HCC-2998 colon | HCT-15 colon | HL-60(TB) leukemia | HOP-18 NSCLC | HOP-62 NSCLC | HOP-92 NSCLC | HT29 colon | IGROV1 ovarian | K-562 leukemia | KM12 colon | KM20L2 colon | LXFL 529 NSCLC | M14 melanoma | MALME-3M melanoma | MOLT-4 leukemia | NCI-H226 lung | NCI-H23 lung | NCI-H460 lung | NCI-H522 lung | OVCAR-3 ovarian | OVCAR-4 ovarian | OVCAR-5 ovarian | OVCAR-8 ovarian | RPMI-8226 leukemia | RXF 393 renal | SF-268 CNS | SF-295 CNS | SF-539 CNS | SK-MEL-2 melanoma | SK-MEL-28 melanoma | SK-MEL-5 melanoma | SK-OV-3 ovarian | SN12C renal | SNB-19 CNS | SNB-75 CNS | SNB-78 CNS | SW-620 colon | TK-10 renal | U251 CNS | UACC-257 melanoma | UACC-62 melanoma | UO-31 renal | XF 498 CNS
